In paper PMC8910297, “Investigation of the Molecular Details of the Interactions of Selenoglycosides and Human Galectin-3” (International Journal of Molecular Sciences, 2022) one finds Kd data, which are given here for two molecules.

Read-outs that look alike come from different tables or passages of the source.

For orientation: Kd means the free concentration of one partner at which half of the binding sites on the other are occupied at equilibrium, for simple one-to-one binding. A low value points to tighter binding.

Test [1] deals with T1, Human galectin-3 (hGal-3) (Homo sapiens, UniProt P17931).
T1 construct: gene LGALS3
T1 sequence (P17931 108-250): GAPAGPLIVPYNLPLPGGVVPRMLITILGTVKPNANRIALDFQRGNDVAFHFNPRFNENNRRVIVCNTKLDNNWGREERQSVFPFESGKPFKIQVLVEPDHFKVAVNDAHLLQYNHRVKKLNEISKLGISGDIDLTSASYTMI
Put plainly: biochemical.

In test [2] the target is T1, Human galectin-3 (hGal-3). The test is described as follows: biochemical. This is another data set of the same source.

Turning to `OC[C@H]1O[C@@H]([Se][Se][C@@H]2O[C@H](CO)[C@H](O)[C@H](O)[C@H]2O)[C@H](O)[C@@H](O)[C@H]1O` [DSeDG, di(β-D-galactopyranosyl)diselenide], the Kd in test [1] turned out to be 8.5 ± 2.5 mM.

On to `OC[C@H]1O[C@@H]([Se][C@@H]2O[C@H](CO)[C@H](O)[C@H](O)[C@H]2O)[C@H](O)[C@@H](O)[C@H]1O` [SeDG, di(β-D-galactopyranosyl)selenide], for which the affinity in test [2], expressed as Kd, was 0.0352 ± 0.0072 mM.
